Reference: patent US11903908B2, “Methods of administering amantadine” (Adamas Pharma, LLC, priority 2013, dated 2024)
Structures can show the parent of a compound that is named as a salt. Where two headings read alike, the source gives them in different places.

What was measured:
[1] = tested on: PD patients with levodopa-induced dyskinesia (LID); details: cited from earlier work
[2] = tested on: subjects with Parkinson's Disease (PD) who have levodopa-induced dyskinesia (LID); assay: Randomized, double-blind, placebo-controlled study of Amantadine ER capsules for levodopa-induced dyskinesia in Parkinson's Disease (Example 5)
Text: Study Objectives: This study was designed to evaluate the efficacy of three dose levels of Amantadine Extended Release (ER) oral capsules dosed once nightly at nighttime for the treatment of levodopa-induced dyskinesia (LID) in subjects with Parkinson's Disease (PD). […] Study design: This was a multi-center, randomized, double-blind, placebo-controlled, 4-arm parallel group study of Amantadine ER in subjects with PD who have LID.
Subjects who were randomized to Treatment C received, in double-blind fashion, 260 mg Amantadine ER once nightly during week 1, with an increase to 340 mg once nightly at the beginning of week 2. Subjects who were randomized to Treatment D, in double-blind fashion, 260 mg Amantadine ER once nightly during week 1, with an increase to 340 mg Amantadine ER once nightly during week 2, with a further increase to 420 mg once nightly at the beginning of week 3. Dosing for all groups continued at the nominal dose through week 8.
Following completion of the baseline visit and randomization, subjects returned to the clinic after 1, 2, 4, 6, and 8 weeks of dosing, with a follow-up visit 14 days following the last dose of study drug. Study visits and assessments were scheduled during the hours between 10 am through 4 pm. A set of two 24-hour diaries were be completed during 48 hours prior to randomization and 48 hours prior to selected study visits. The diary was used to score five different conditions in 30-minute intervals: Sleep, OFF, ON without dyskinesias, ON with nontroublesome dyskinesias, ON with troublesome dyskinesias.
Blood samples were collected at selected study visits for determination of amantadine plasma concentrations, and evaluation of steady-state population pharmacokinetics. Subject participation during the study was up to 12 weeks including a 2-week (maximum) screening period, 8-week (maximum) treatment period, and a 2-week follow-up period. Subjects unable to tolerate their assigned study drug assignment permanently discontinued study drug and continued to be followed for safety through 2 weeks following the last dose of study drug. […]

[3] = amantadine IR 200 mg/day, PD patients

discontinuation rates ([2]; 420 mg once nightly): higher discontinuation rates
Structure (SMILES): NC12CC3CC(CC(C3)C1)C2 [amantadine, Amantadine HCl]
reduction in LID [1, 3]: approximately 25%
tolerability [1, 3]: generally tolerated by the majority of PD patients
CNS side effects ([1]; amantadine IR 300 mg/day or higher): associated with central nervous system (CNS) side effects
reduction of LID ([1]; amantadine IR 300 mg/day, PD patients): ~40%
reduction of LID ([1]; amantadine IR 300 to 400 mg/day, one study): ~60%
effect on motor fluctuations (ON/OFF) ([1]; later stages of PD): no effect
frequency of side effects ([2]; 420 mg once nightly): comparable frequency of side effects
tolerability ([2]; 260-420 mg once nightly, Parkinson's disease patients): well tolerated
